Data on 8 compounds can be found in patent EP3345917A1, “ANTIPROTOZOAL COMPOUNDS” (Bacoba AG, priority 2017, dated 2018).

The test system of one series is Plasmodium falciparum. Nature of the series: 3H-hypoxanthine incorporation assay against Plasmodium falciparum. Particulars: In vitro inhibition, read-out: P.falc NF5. It is filed as cell-based. As for the experimental part:
Tests were done in triplicate.
IC50 values were calculated by linear interpolation.

A short description of series [1]: Cytotoxicity assay on L6-cells (Alamar Blue). Particulars: rat, Cytotox L6, Cytotoxicity against rat myoblast cells (L6). (Resazurin is reduced to fluorescent resorufin, in cell work by metabolically active cells.)
Description: Tests were done in triplicate. IC50 values against the parasites as well as cytotoxic effects against rat myoblast (L6-cells) were determined by serial dilution and repeated twice.
After 68 h of incubation under humidified 5% CO2 atmosphere, 10 µl of the Alamar blue marker was added to all wells. The plates were incubated for an additional 2 h. […] The IC50S were calculated by Softmax Pro software (Molecular Devices Cooperation, Sunnyvale, CA). […] Cytotoxicity was measured against rat myoblast cells (Cytotox L6).
In series [2] the test system is Axenically grown Leishmania donovani amastigotes (strain MHOM/ET/67/L82). Nature of the series: Axenic Leishmania donovani amastigote resazurin assay. Type of series: cell-based. The conditions noted are these: In vitro inhibition, read-out: L.don. ax. In outline: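 IC50 values derive from resazurin fluorescence (ex 536 nm, em 588 nm), expressed relative to the negative control, after 2-4 hours of plate development. Axenic amastigotes of strain MHOM/ET/67/L82 were used; each test run in triplicate.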

Series [3] concerns Trypanosoma brucei rhodesiense (STIB 900 strain). The series is described as follows: Alamar Blue assay against Trypanosoma brucei rhodesiense grown in axenic medium. It is filed as cell-based. The conditions noted are these: In vitro inhibition, read-out: T.b.rhod. In outline:
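Alamar Blue-based IC50 determination, in triplicate, on axenically grown STIB 900 trypanosomes. Melarsoprol included as reference.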

Series [4] has as its system Trypanosoma cruzi trypomastigote forms (Tulahuen strain). The series is described as follows: Intracellular Trypanosoma cruzi assay in L6-cells, beta-galactosidase/CPRG readout. It is filed as cell-based. Particulars: In vitro inhibition, read-out: T.cruzi. In outline:
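Readout was β-galactosidase cleavage of CPRG, read photometrically at 540 nm after 2–6 h colour development, giving IC50 values. Parasites: LacZ-expressing Tulahuen C2C4 strain grown in rat L6 myoblasts; run in triplicate.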

Starred links: 1 amine or outer side, 2 acyl side, 3 side chain; linkers in the order of their positions; H or OH if unused. Non-standard residues stand in square brackets, D forms with d. Residues, ends and D or L forms follow the SMILES beside them. *: point of attachment. ACHC(1S,2R) = O=C([C@H]1CCCC[C@H]1N[*:1])[*:2]; Hexenoyl(2E,4S-Me) = CC[C@H](C)/C=C/C(=O)*; Leu(3R-OH) = CC(C)[C@@H](O)[C@H](N)C(=O)O; NH((S)CH(Me)CH2NMe2) = C[C@@H](CN(C)C)N*; NH(1-CH2NMe2-cBu) = CN(C)CC1(N*)CCC1; Gly(octyl) = CCCCCCCC[C@H](N)C(=O)O; Oxazole4CO(2-Me) = Cc1nc(C(=O)*)co1; Hexanoyl = CCCCCC(=O)*; X18 = CN1CCN(CCN*)CC1; Aib = CC(C)(N)C(=O)O; Bz = O=C(c1ccccc1)*; X14 = O=C(c1cocn1)*; βAla = NCCC(=O)O

`CCCCCCCC[C@H](NC(=O)[C@@H]1CCCN1C(=O)c1coc(C)n1)C(=O)N[C@@H](CC(C)C)C(=O)NC(C)(C)C(=O)NC(C)(C)C(=O)N[C@@H](CC(C)C)C(=O)N[C@@H](CC(C)C)C(=O)NC(C)(C)C(=O)NC(C)(C)C(=O)NCCC(=O)NC1(CN(C)C)CCC1` [Compound 6330, (2S)-N-[(1S)-1-({1-[(1-{[(1S)-1-{[(1S)-1-({1-[(1-{[2-({1-[(dimethylamino)methyl]cyclobutyl}carbamoyl)ethyl]carbamoyl}-1-methylethyl)carbamoyl]-1-methylethyl}carbamoyl)-3-methylbutyl]carbamoyl}-3-methylbutyl]carbamoyl}-1-methylethyl)carbamoyl]-1-methylethyl}carbamoyl)-3-methylbutyl]-2-{[(2S)-1-(2-methyl-1,3-oxazole-4-carbonyl)pyrrolidin-2-yl]formamido}decanamide] ({Oxazole4CO(2-Me)}-P[Gly(octyl)]L[Aib][Aib]LL[Aib][Aib][βAla]-{NH(1-CH2NMe2-cBu)}): the IC50 turned out to be 0.24 nM in the series with Plasmodium falciparum, 0.72 nM in series [2], 0.2 nM in series [3] and 36.3 nM in series [4]. The compound further came in with an IC50 at 70 h in series [1] of 1200 nM.

In the case of `CCCCCCCC[C@H](NC(=O)c1coc(C)n1)C(=O)N[C@H](C(=O)NC(C)(C)C(=O)N[C@@H](CC(C)C)C(=O)N[C@@H](CC(C)C)C(=O)NC(C)(C)C(=O)NC(C)(C)C(=O)NCCC(=O)N[C@@H](C)CN(C)C)[C@@H](C)O` [Compound 5640, (2S)-N-[(1S,2R)-1-[(1-{[(1S)-1-{[(1S)-1-{[1-({1-[(2-{[(2S)-1-(dimethylamino)propan-2-yl]carbamoyl}ethyl)carbamoyl]-1-methylethyl}carbamoyl)-1-methylethyl]carbamoyl}-3-methylbutyl]carbamoyl}-3-methylbutyl]carbamoyl}-1-methylethyl)carbamoyl]-2-hydroxypropyl]-2-[(2-methyl-1,3-oxazol-4-yl)formamido]decanamide] ({Oxazole4CO(2-Me)}-[Gly(octyl)]T[Aib]LL[Aib][Aib][βAla]-{NH((S)CH(Me)CH2NMe2)}), the IC50 is 85.6 nM in the series with Plasmodium falciparum, 193 nM in series [2], 5.3 nM in series [3] and 3740 nM in series [4]. In addition, in series [1], the IC50 at 70 h was determined as 4440 nM.

As for `CCCCCCCC[C@H](NC(=O)[C@@H]1CCCN1C(=O)c1coc(C)n1)C(=O)N[C@@H](CC(C)C)C(=O)NC(C)(C)C(=O)N[C@@H](CC(C)C)C(=O)N[C@@H](CC(C)C)C(=O)NC(C)(C)C(=O)N[C@@H](CC(C)C)C(=O)NCCC(=O)NC1(CN(C)C)CCC1` [Compound 6329, (2S)-N-[(1S)-1-[(1-{[(1S)-1-{[(1S)-1-[(1-{[(1S)-1-{[2-({1-[(dimethylamino)methyl]cyclobutyl}carbamoyl)ethyl]carbamoyl}-3-methylbutyl]carbamoyl}-1-methylethyl)carbamoyl]-3-methylbutyl]carbamoyl}-3-methylbutyl]carbamoyl}-1-methylethyl)carbamoyl]-3-methylbutyl]-2-{[(2S)-1-(2-methyl-1,3-oxazole-4-carbonyl)pyrrolidin-2-yl]formamido}decanamide] ({Oxazole4CO(2-Me)}-P[Gly(octyl)]L[Aib]LL[Aib]L[βAla]-{NH(1-CH2NMe2-cBu)}), the IC50 is 0.17 nM in the series with Plasmodium falciparum, 0.17 nM in series [2], 0.08 nM in series [3] and 4.6 nM in series [4]. The IC50 at 70 h in series [1] was 398 nM.

In the case of `CCCCCCCC[C@H](NC(=O)c1cocn1)C(=O)N[C@H](C(=O)NC(C)(C)C(=O)N[C@@H](CC(C)C)C(=O)N[C@@H](CC(C)C)C(=O)NC(C)(C)C(=O)NC(C)(C)C(=O)NCCC(=O)N[C@@H](C)CN(C)C)[C@@H](C)O` [Compound 5639, (2S)-N-[(1S,2R)-1-[(1-{[(1S)-1-{[(1S)-1-{[1-({1-[(2-{[(2S)-1-(dimethylamino)propan-2-yl]carbamoyl}ethyl)carbamoyl]-1-methylethyl}carbamoyl)-1-methylethyl]carbamoyl}-3-methylbutyl]carbamoyl}-3-methylbutyl]carbamoyl}-1-methylethyl)carbamoyl]-2-hydroxypropyl]-2-[(1,3-oxazol-4-yl)formamido]decanamide] (X14-[Gly(octyl)]T[Aib]LL[Aib][Aib][βAla]-{NH((S)CH(Me)CH2NMe2)}), the IC50 with Plasmodium falciparum is 244 nM; in series [2], 540 nM; in series [3], 22.5 nM; in series [4], 5360 nM. Also, the IC50 at 70 h in series [1] was found to be 1640 nM.

As for `CCCCCC(=O)N1CCC[C@H]1C(=O)N[C@@H](CCCCNC(C)=O)C(=O)N[C@@H](CC(C)C)C(=O)NC(C)(C)C(=O)N[C@@H](CC(C)C)C(=O)N[C@@H](CC(C)C)C(=O)NC(C)(C)C(=O)NC(C)(C)C(=O)NCCC(=O)N[C@@H](C)CN(C)C` [Compound 5766, (2S)-N-[(1S)-1-[(1-{[(1S)-1-{[(1S)-1-{[1-({1-[(2-{[(2S)-1-(dimethylamino)propan-2-yl]carbamoyl}ethyl)carbamoyl]-1-methylethyl}carbamoyl)-1-methylethyl]carbamoyl}-3-methylbutyl]carbamoyl}-3-methylbutyl]carbamoyl}-1-methylethyl)carbamoyl]-3-methylbutyl]-6-acetamido-2-{[(2S)-1-hexanoylpyrrolidin-2-yl]formamido}hexanamide] (Hexanoyl-PK(Ac)L[Aib]LL[Aib][Aib][βAla]-{NH((S)CH(Me)CH2NMe2)}), the IC50 with Plasmodium falciparum came out at 135 nM; in series [2], 752 nM; in series [3], 3 nM; in series [4], 3780 nM. In addition, the IC50 at 70 h in series [1] amounted to 4870 nM.

Regarding `CC[C@H](C)/C=C/C(=O)N1CCC[C@H]1C(=O)N[C@@H](C)C(=O)N[C@H](C(=O)NC(C)(C)C(=O)N[C@@H](CC(C)C)C(=O)N[C@@H](CC(C)C)C(=O)NC(C)(C)C(=O)NC(C)(C)C(=O)NCCC(=O)N[C@@H](C)CN(C)C)[C@H](O)C(C)C` [Compound 5526, (2S,3R)-N-(1-{[(1S)-1-{[(1S)-1-{[1-({1-[(2-{[(2S)-1-(dimethylamino)propan-2-yl]carbamoyl}ethyl)carbamoyl]-1-methylethyl}carbamoyl)-1-methylethyl]carbamoyl}-3-methylbutyl]carbamoyl}-3-methylbutyl]carbamoyl}-1-methylethyl)-3-hydroxy-4-methyl-2-[(2S)-2-{[(2S)-1-[(2E,4S)-4-methylhex-2-enoyl]pyrrolidin-2-yl]formamido}propanamido]pentanamide] ({Hexenoyl(2E,4S-Me)}-PA[Leu(3R-OH)][Aib]LL[Aib][Aib][βAla]-{NH((S)CH(Me)CH2NMe2)}), the IC50 in the series with Plasmodium falciparum turned out to be 83.8 nM; in series [2], 286 nM; in series [3] it was 2.35 nM; in series [4], 4500 nM. In series [1], this compound yielded an IC50 at 70 h of 3640 nM.

For the compound `CCCCCCCC[C@H](NC(=O)[C@@H]1CCCN1C(=O)CCCCC)C(=O)N[C@@H](CC(C)C)C(=O)NC(C)(C)C(=O)N[C@@H](CC(C)C)C(=O)N[C@@H](CC(C)C)C(=O)NC(C)(C)C(=O)NC(C)(C)C(=O)NCCC(=O)NCCN1CCN(C)CC1` [Compound 5884, (2S)-2-{[(2S)-1-hexanoylpyrrolidin-2-yl]formamido}-N-[(1S)-3-methyl-1-[(1-methyl-1-{[(1S)-3-methyl-1-{[(1S)-3-methyl-1-{[1-methyl-1-({1-methyl-1-[(2-{[2-(4-methylpiperazin-1-yl)ethyl]carbamoyl}ethyl)carbamoyl]ethyl}carbamoyl)ethyl]carbamoyl}butyl]carbamoyl}butyl]carbamoyl}ethyl)carbamoyl]butyl]decanamide] (Hexanoyl-P[Gly(octyl)]L[Aib]LL[Aib][Aib][βAla]-X18), the IC50 in the series with Plasmodium falciparum worked out at 15000 nM; in series [2], 19400 nM; in series [3] it was 0.6 nM; in series [4], 42500 nM. The IC50 at 70 h in series [1] worked out at 128 nM.

In the case of `CCCCCCCC[C@H](NC(=O)[C@H]1CCCC[C@H]1NC(=O)c1ccccc1)C(=O)N[C@@H](CC(C)C)C(=O)NC(C)(C)C(=O)N[C@@H](CC(C)C)C(=O)N[C@@H](CC(C)C)C(=O)NC(C)(C)C(=O)NC(C)(C)C(=O)NCCC(=O)N[C@@H](C)CN(C)C` [Compound 5982, N-[(1R,2S)-2-{[(1S)-1-{[(1S)-1-[(1-{[(1S)-1-{[(1S)-1-{[1-({1-[(2-{[(2S)-1-(dimethylamino)propan-2-yl]carbamoyl}ethyl)carbamoyl]-1-methylethyl}carbamoyl)-1-methylethyl]carbamoyl}-3-methylbutyl]carbamoyl}-3-methylbutyl]carbamoyl}-1-methylethyl)carbamoyl]-3-methylbutyl]carbamoyl}nonyl]carbamoyl}cyclohexyl]benzamide] (Bz-[ACHC(1S,2R)][Gly(octyl)]L[Aib]LL[Aib][Aib][βAla]-{NH((S)CH(Me)CH2NMe2)}), the IC50 worked out at 12100 nM in the series with Plasmodium falciparum, 0.9 nM in series [2], 29200 nM in series [3] and 47.1 nM in series [4]. Besides, the IC50 at 70 h in series [1] was found to be 573 nM.
